Laboratory results published in patent US11273152B2, “TRPV2 antagonists” (Instituto de Medicina Molecular João Lobo Antunes, priority 2017, dated 2022).
pIC50: −log10 of the molar value. Entries after “also recorded” stand apart in the source; their conditions may differ. Like-named read-outs stand apart in the source and are kept apart here.

Tests used:
[1] = test system: human, ligand-gated TRP channels; test: TRP channel panel screen, activation; assay type: cell-based; settings: TRPV, TRPC, TRPM, TRPA panel
[2] = biological target: T1, TRPV2 (Homo sapiens, UniProt Q9Y5S1); test: Manual patch-clamp assay, hTRPV2 stable HEK-293 cells; assay type: cell-based; settings: n=2; for pIC50: read-out: IC50 against TRPV2, patch-clamp assay
T1 sequence (Q9Y5S1 1-764): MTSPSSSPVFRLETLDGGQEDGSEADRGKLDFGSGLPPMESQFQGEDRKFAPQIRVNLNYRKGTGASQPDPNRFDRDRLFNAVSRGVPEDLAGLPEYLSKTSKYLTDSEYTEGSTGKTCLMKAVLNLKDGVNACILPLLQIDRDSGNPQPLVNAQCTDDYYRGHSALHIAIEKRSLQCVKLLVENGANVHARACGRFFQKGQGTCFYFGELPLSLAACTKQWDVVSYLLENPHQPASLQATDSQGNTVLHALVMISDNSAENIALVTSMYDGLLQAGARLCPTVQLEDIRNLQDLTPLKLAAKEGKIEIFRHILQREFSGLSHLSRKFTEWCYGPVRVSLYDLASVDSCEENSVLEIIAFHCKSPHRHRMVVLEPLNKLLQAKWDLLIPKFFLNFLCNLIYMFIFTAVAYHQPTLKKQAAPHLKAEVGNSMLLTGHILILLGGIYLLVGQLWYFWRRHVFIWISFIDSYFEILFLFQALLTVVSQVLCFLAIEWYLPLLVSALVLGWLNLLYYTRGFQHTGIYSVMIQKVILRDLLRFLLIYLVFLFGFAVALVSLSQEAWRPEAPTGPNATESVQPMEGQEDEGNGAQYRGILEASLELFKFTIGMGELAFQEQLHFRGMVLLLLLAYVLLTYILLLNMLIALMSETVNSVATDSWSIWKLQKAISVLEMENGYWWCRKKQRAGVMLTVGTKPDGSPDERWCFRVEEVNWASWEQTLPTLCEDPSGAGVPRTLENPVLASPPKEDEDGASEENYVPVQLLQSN
Protocol: The assays were performed at SB Discovery (Glasgow, UK) on a fee-for-service basis. Concentration-response curves and washout assays were performed using a manual patch clamp method. HEK-293 cells were grown and prepared, according to the adapted procedure for hTRPV2 stable cell lines at SB Discovery. Cells were serum starved for approximately 24 hours and then changed to serum-containing media prior to electrophysiology testing. The manual patch-clamp assay was carried out at room temperature using a traditional electrophysiological unit. Cells were used within 2-3 hours after addition of serum containing media to the cells. The standard extracellular solution contained 145 mM NaCl, 4 mM KCl, 2 mM CaCl2, 1 mM MgCl2, 10 mM HEPES and 10 mM glucose. The pH was adjusted to 7.4 with NaOH, and the osmolarity was measured as 311 mOsm/L. The standard intracellular solution contained 50 mM KCl, 10 mM NaCl, 60 mM KF, 2 mM MgCl2, 20 mM EGTA and 10 mM HEPES. The pH was adjusted to 7.2 with KOH and the osmolarity was measured as 286 mOsm/L. A standard ramp protocol was used to monitor currents upon addition of control (extracellular solution) and compound solutions. The voltage protocol consisted of a series of voltage ramps from −100 mV to +100 mV, every 5 seconds, from a holding potential of −60 mV. The maximum outward current values during the recordings at +100 mV were used for analysis. Manual patch clamp experiments were carried out using an Axon 200B amplifier and a Digidata 1440A acquisition system from Axon Instruments (Molecular Devices, USA). The software program pClamp (version 10) from Axon Instruments was used to stimulate and record electrical activity. Capacitative transients were compensated electronically from the recordings, however the voltage drop across the series resistance and the liquid junction potential were not compensated. The series resistance was generally less than 10 MΩ, with a mean cell capacity of approximately 25 pF. The GraphPad Prism (version 5) software was used to analyze and plot all graphs. The agonist (cannabidiol; Abcam #ab120448) was prepared as 100 mM stock in 100% DMSO and diluted to 4 μM or 10 μM in physiological solution prior to testing. Piperlongumine was prepared as 100 mM stock in 100% DMSO and diluted to the specified concentrations in physiological solution (100, 50, 10, 1 and 0.1 μM), also containing 4 μM or 10 μM cannabidiol. Ruthenium red (Sigma, #R2751) was prepared daily as 10 mM stock ion distilled water and diluted to 100 μM in physiological solution.

[3] = biological target: TRPM8 (Homo sapiens, UniProt Q7Z2W7); test: Fluorescence cell-based assay, TRPM8; settings: calcium 5 dye, duplicate
Sequence of TRPM8 (Q7Z2W7 whole entry): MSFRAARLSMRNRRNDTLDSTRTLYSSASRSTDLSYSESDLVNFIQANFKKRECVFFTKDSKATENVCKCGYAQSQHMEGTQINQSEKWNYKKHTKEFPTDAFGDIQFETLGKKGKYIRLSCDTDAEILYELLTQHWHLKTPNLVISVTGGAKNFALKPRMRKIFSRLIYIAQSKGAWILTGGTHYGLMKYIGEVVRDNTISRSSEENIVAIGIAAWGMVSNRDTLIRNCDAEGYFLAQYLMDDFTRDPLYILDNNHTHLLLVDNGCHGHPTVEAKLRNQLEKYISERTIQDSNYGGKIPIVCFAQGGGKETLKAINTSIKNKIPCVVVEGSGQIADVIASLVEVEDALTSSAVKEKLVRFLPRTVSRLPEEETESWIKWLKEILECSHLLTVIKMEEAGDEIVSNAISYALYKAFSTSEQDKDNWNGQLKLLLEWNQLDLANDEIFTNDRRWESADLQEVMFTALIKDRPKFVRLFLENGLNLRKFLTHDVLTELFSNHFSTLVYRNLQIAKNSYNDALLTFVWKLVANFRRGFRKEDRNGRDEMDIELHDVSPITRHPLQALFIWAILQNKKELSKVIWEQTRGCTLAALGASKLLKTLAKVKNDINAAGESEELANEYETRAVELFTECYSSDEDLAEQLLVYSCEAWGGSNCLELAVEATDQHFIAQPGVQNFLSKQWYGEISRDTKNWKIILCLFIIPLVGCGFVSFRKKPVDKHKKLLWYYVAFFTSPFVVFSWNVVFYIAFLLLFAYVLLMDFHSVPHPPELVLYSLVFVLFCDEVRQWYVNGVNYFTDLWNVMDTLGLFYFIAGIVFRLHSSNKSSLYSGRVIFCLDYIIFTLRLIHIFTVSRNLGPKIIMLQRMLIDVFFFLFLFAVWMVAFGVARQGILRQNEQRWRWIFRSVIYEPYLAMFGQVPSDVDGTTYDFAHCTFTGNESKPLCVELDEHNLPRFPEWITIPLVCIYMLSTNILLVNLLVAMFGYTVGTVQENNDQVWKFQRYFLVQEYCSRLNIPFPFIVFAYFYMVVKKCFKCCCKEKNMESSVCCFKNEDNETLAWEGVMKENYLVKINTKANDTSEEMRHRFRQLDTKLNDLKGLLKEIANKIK
Protocol: (§1) The assays were performed at SB Discovery (Glasgow, UK) on a fee-for-service basis. Human TRP cells were trypsinised, counted and seeded in black, clear-bottomed 96 well plates at a density of 50,000 cells per well in 100 μL volume and incubated overnight. Next day, the cells were loaded with calcium 5 dye or membrane potential dye. TRPV1-5, TRPA1, TRPM2, TRPM3, and TRPM8 were tested using the calcium 5 dye. TRPC1, TRPC3-7, and TRPM4-5 were tested using the membrane potential dye. Both dye solutions were made up in HEPES buffered Hank's balanced salt solution (HBSS). Dye solution (90 μL) was added to the wells and incubated at 37° C. for 1 hour. Test compounds and standard inhibitors (10 μL) were then added to the wells and incubated at room temperature for 10 minutes. The plates were then placed in the flexstation and fluorescence monitored every 1.52 seconds. After 20 seconds agonist was added and the fluorescence monitored for 2 minutes at 485 nm/525 nm and 530 nm/565 nm, Ex/Em, for the calcium 5 dye and the membrane potential dye respectively. Controls-TRPV1: capsazepine; TRPV2: tranilast; TRPV3: ruthenium red; TRPV4: ruthenium red; TRPV5: Gd^3+; TRPA1, ruthenium red; TRPC1: Gd^3+; TRPC3: Pyr3; TRPC4: ML 204; TRPC5: ML 204; TRPC6: ML 204; TRPC7: SKF 96365; TRPM2: 2-APB; TRPM3: Mef acid; TRPM4: clotrimazole; TRPM5: TPPO; TRPM8: 2-APB. […]

[4] = biological target: TRPC3 (Homo sapiens, UniProt Q13507); test: Fluorescence cell-based assay, TRPC3; settings: membrane potential dye, duplicate
Sequence of TRPC3 (Q13507 whole entry): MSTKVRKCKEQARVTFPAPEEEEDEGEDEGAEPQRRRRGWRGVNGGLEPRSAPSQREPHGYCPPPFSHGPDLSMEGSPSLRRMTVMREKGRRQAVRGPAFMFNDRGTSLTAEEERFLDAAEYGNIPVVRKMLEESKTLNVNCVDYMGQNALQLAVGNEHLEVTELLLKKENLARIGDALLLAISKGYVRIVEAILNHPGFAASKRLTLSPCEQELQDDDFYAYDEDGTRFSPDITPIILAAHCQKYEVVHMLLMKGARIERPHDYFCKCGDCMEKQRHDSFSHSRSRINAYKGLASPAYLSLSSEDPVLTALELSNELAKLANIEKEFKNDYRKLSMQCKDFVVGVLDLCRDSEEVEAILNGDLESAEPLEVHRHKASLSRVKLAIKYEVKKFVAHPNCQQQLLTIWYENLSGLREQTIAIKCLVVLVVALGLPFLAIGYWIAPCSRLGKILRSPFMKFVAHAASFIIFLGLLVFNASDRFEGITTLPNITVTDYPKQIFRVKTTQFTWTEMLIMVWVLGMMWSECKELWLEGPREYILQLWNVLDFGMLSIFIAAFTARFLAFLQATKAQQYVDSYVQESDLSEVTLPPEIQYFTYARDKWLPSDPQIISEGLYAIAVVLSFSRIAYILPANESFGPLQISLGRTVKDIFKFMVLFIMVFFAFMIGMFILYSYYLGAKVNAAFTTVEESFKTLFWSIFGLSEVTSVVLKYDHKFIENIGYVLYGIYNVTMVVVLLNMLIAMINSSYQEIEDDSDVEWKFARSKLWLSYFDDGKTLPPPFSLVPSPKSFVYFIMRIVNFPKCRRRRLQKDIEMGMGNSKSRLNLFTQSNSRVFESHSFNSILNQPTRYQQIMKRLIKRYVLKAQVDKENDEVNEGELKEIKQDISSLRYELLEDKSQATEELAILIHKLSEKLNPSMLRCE
Protocol: as §1

## COc1cc(/C=C/C(=O)N2CCC=CC2=O)cc(OC)c1OC [Compound 1, piperlongumine]
[1]
  Activation of the assayed TRP channels: did not activate any of the assayed channels
[2]; 1 at 100 μM, CBD 4 μM
  TRPV2 activity after washout (reversibility): fully restored upon washout; also recorded: full TRPV2 activity can be reinstated
[2]; stimulus: 4 μM CBD, spread in log units
  pIC50: 6.00
[2]; stimulus: 10 μM CBD
  pIC50: < 4.00
[3]
  IC50: > 100 µM
[4]
  IC50: > 100 µM
